Data taken from patent US20220315534A1, “BETA ADRENERGIC AGONIST AND METHODS OF USING THE SAME” (Curasen Therapeutics, Inc., priority 2019, published 2022).

Tests used:
[1] = target: T1, β1-adrenergic receptor (B1-AR) (Homo sapiens, UniProt P08588); assay: cAMP Gs dynamic HTRF assay, cells expressing β1-adrenergic receptor; type: cell-based; conditions: CHO-K1 (HitHunter) cells; read-out: Average pEC50 [Receptor subtype: B1-AR; Cell type: CHO-K1 (HitHunter)] (converted)
T1 construct: expressed in transfected cells
T1 sequence (P08588 whole entry): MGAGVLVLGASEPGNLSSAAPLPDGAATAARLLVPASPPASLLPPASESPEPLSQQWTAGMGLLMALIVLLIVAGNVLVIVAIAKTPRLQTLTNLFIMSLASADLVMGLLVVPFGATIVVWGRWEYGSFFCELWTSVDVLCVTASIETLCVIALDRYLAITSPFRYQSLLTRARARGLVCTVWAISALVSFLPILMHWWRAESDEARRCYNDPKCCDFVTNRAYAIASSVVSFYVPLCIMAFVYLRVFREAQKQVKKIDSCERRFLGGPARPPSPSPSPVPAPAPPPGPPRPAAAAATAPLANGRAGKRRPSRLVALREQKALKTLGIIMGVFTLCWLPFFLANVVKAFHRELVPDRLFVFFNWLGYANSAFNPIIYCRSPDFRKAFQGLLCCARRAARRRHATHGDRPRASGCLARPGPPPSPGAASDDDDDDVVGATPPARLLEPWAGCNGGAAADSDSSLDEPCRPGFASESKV
Description: (§1) cAMP homogeneous time-resolved fluorescence (HTRF): experimental methods. Compound efficacy is determined using the cAMP Gs dynamic HTRF assay (Cisbio, catalog #62AM4PEC) largely following the manufacturer's instructions, also detailed below.
(§2) Standard serial dilution curves are 10-point, 5-fold dilutions starting from a highest concentration of 10 μM. […] Assay plates are centrifuged at 500×g for 10 seconds. Compounds and IBMX are prepared at 2× final dose to compensate for addition of cells.
(§3) Cell preparation: 1× stimulation buffer, washing PBS (Dulbecco's phosphate-buffered saline, —Mg —Ca; Caisson Labs, catalog #PBL01), assay PBS (Dulbecco's phosphate-buffered saline, +Mg, +Ca; Caisson Labs, catalog #PBL02) and Versene (0.02% EDTA disodium salt solution in PBS without calcium or magnesium; Caisson Labs, catalog #EDL01) are pre-warmed to 37° C. Cells expressing beta-adrenergic receptor were washed in washing PBS to remove growth medium and then released from the surface by incubating with Versene for 5-10 minutes at 37° C. Cells are harvested using assay PBS, counted manually by hemocytometer or by an automated cell counter, pelleted by centrifugation (200×g, 5 minutes) and resuspended in 37° C. 1× stimulation buffer to a final density of […]. 5 μL of the suspended cell solution (7500 cell total) are added to all wells of the 384 well assay plate, the assay plate was covered with an Axygen® plate seal (Corning PCR-SP) and incubated in a humidified 37° C. environment supplemented with 5% CO2 for 30 minutes.
(§4) HTRF reagent addition, reading and data analysis: After 30 minutes of cell stimulation with test compound, the assay plates are centrifuged at 500×g for 10 seconds, and incubation was stopped with the addition of 5 μL cAMP-D2 acceptor, diluted 1:21 in detection and lysis buffer 2 (Cisbio 62CL2FDF) was added to all cells. Subsequently, 5 μL Anti-cAMP-Eu Donor, diluted 1:21 in detection and lysis buffer 2, was added to cells. Plates were sealed and reactions gently ‘vortexed’ at 900 rpm on a Heidolph Titramax 1000 for at least 30 minutes at room temperature. Plates are centrifuged again at 500×g for 10 seconds, and HTRF was measured using a Tecan Spark plate reader at 50 flashes per well. […] Potency estimates (EC50 and pEC50) are derived from the four-parameter nonlinear regression of the concentration-effect curve and an estimate of relative efficacy is determined by comparing the magnitude of the test compound HTRF signal window (min-max dose) with the signal window of the full agonist control, isoproterenol.

[2] = target: T2, β2-adrenergic receptor (B2-AR) (Homo sapiens, UniProt P07550); assay: cAMP Gs dynamic HTRF assay, cells expressing β2-adrenergic receptor; type: cell-based; conditions: CHO-K1 (HitHunter) cells; read-out: Average pEC50 [Receptor subtype: B2-AR; Cell type: CHO-K1 (HitHunter)] (converted)
T2 construct: expressed in transfected cells
T2 sequence (P07550 whole entry): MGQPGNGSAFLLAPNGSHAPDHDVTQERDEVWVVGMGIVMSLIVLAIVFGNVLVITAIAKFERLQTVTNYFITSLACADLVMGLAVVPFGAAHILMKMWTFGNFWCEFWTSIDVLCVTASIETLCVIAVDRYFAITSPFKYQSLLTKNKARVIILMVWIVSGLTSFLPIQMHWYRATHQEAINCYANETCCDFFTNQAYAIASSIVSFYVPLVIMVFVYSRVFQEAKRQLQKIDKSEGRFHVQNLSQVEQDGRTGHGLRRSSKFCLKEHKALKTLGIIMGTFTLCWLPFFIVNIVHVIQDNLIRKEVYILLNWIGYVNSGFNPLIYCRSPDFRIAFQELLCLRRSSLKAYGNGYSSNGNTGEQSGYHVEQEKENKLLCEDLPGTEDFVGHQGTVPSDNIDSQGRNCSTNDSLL
Description: as §1, §2, §3, §4

SMILES	EC50 [1]	EC50 [2]
CC(C)(C)NC[C@@H](O)c1cccc2ccc(C#N)nc12 [Compound 04-71]	100 to 1000 nM	100 to 1000 nM
CC(C)(C)NC[C@H](O)c1cccc2ccc(C#N)nc12 [Compound 04-72]	< 10 nM	< 10 nM
CC(C)(C)NC[C@H](O)c1ccnc2cccnc12 [Compound 04-73]	10 to 100 nM	10 to 100 nM
CC(C)(C)NC[C@@H](O)c1cccc2nccnc12 [Compound 04-74]	> 1000 nM	> 1000 nM
CC(C)(C)NC[C@H](O)c1cccc2nccnc12 [Compound 04-75]	< 10 nM	< 10 nM
CC(C)(C)NC[C@H](O)c1cc(F)cc2cccnc12 [Compound 04-76]	< 10 nM	< 10 nM
CC(C)(C)NC[C@@H](O)c1ccc(F)c2cccnc12 [Compound 04-79]	100 to 1000 nM	100 to 1000 nM
CC(C)(C)NC[C@H](O)c1ccc(F)c2cccnc12 [Compound 04-80]	< 10 nM	< 10 nM
CC(C)(C)NC[C@@H](O)c1ccc(C(F)(F)F)c2cccnc12 [Compound 04-81]	100 to 1000 nM	100 to 1000 nM
CC(C)(C)NC[C@H](O)c1ccc(C(F)(F)F)c2cccnc12 [Compound 04-82]	< 10 nM	< 10 nM
Cc1ccnc2c([C@H](O)CNC(C)(C)C)cccc12 [Compound 04-83]	100 to 1000 nM	100 to 1000 nM
Cc1ccnc2c([C@@H](O)CNC(C)(C)C)cccc12 [Compound 04-84]	< 10 nM	10 to 100 nM
CC(C)(C)NC[C@H](O)c1cccc2ccc(C(F)(F)F)nc12 [Compound 04-85]	< 10 nM	< 10 nM
CC(C)(C)NC[C@@H](O)c1cccc2ccc(C(F)(F)F)nc12 [Compound 04-86]	100 to 1000 nM	100 to 1000 nM
Cc1ccc2cccc([C@H](O)CNC(C)(C)C)c2n1 [Compound 04-87]	100 to 1000 nM	100 to 1000 nM
Cc1ccc2cccc([C@@H](O)CNC(C)(C)C)c2n1 [Compound 04-88]	< 10 nM	< 10 nM
CC(C)(C)NC[C@H](O)c1c(F)ccc2cccnc12 [Compound 04-90]	100 to 1000 nM	> 1000 nM
CC(C)(C)NC[C@@H](O)c1cccc2cccnc12 [Compound 04-93]	100 to 1000 nM	100 to 1000 nM
CC(C)(C)NC[C@H](O)c1cccc2cccnc12 [Compound 04-94]	< 10 nM	< 10 nM
CC(C)(C)NCC(O)c1ccnc2ccccc12 (stereo not shown) [Compound 04-96]	10 to 100 nM	10 to 100 nM
CC(C)(C)NC[C@H](O)c1ncc(O)c2ccccc12 [Compound 04-97]	> 1000 nM	> 1000 nM

SMILES	EC50 [1]	EC50 [2]
CC(C)(C)NCC(O)c1cccc2ccccc12 (stereo not shown) [Compound 04-98]	< 10 nM	10 to 100 nM
CC(C)(C)NC[C@H](O)c1cccc2c1C(C)(C)C(=O)N2 [Compound 04-102]	100 to 1000 nM	100 to 1000 nM
CC(C)(C)NC[C@H](O)c1cccc2c1C1(CC1)C(=O)N2 [Compound 04-103]	100 to 1000 nM	100 to 1000 nM
CC(C)(C)NC[C@H](O)c1cc(C#N)cc2[nH]ncc12 [Compound 04-104]	100 to 1000 nM	< 10 nM
CC(C)(C)NC[C@H](O)c1cccc2[nH]ccc12 [Compound 04-105]	> 1000 nM	> 1000 nM
CC(C)(C)NC[C@H](O)c1c2cn[nH]c2cc[n+]1[O-] [Compound 04-106]	100 to 1000 nM	100 to 1000 nM
CC(C)(C)NC[C@@H](O)c1c2cn[nH]c2cc[n+]1[O-] [Compound 04-107]	> 1000 nM	100 to 1000 nM
CC(C)(C)NC[C@H](O)c1ccc(Cl)c2[nH]ncc12 [Compound 04-108]	< 10 nM	< 10 nM
Cc1cc([C@@H](O)CNC(C)(C)C)c2cn[nH]c2c1 [Compound 04-109]	10 to 100 nM	< 10 nM
CC(C)(C)NC[C@H](O)c1cccc2c1CC(=O)N2 [Compound 04-110]	> 1000 nM	> 1000 nM
Cc1c[nH]c2cccc([C@@H](O)CNC(C)(C)C)c12 [Compound 04-111]	> 1000 nM	> 1000 nM
CC(C)(C)NC[C@H](O)c1cccc2[nH]cc(F)c12 [Compound 04-112]	< 10 nM	< 10 nM
CC(C)(C)NC[C@H](O)c1cccc2[nH]nc(F)c12 [Compound 04-113]	< 10 nM	< 10 nM
Cc1c[nH]c2nccc([C@@H](O)CNC(C)(C)C)c12 [Compound 04-114]	> 1000 nM	> 1000 nM
CC(C)(C)NC[C@H](O)c1ccc2nn[nH]c2c1 [Compound 04-115]	100 to 1000 nM	10 to 100 nM
CC(C)(C)NC[C@H](O)c1cccc2[nH]c(=O)oc12 [Compound 04-116]	< 10 nM	< 10 nM
CC(C)(C)NC[C@H](O)c1cc(Cl)c2[nH]cnc2c1 [Compound 04-117]	100 to 1000 nM	< 10 nM
Cc1nc2cc([C@@H](O)CNC(C)(C)C)ccc2[nH]1 [Compound 04-118]	> 1000 nM	> 1000 nM
CC(C)(C)NC[C@H](O)c1cccc2[nH]c3cccnc3c12 [Compound 04-119]	< 10 nM	< 10 nM
CC(C)(C)NC[C@H](O)c1cccc2c1C1(CC1)CN2 [Compound 04-120]	> 1000 nM	100 to 1000 nM
CC(C)(C)NC[C@H](O)c1ccc(F)c2[nH]c3ccccc3c12 [Compound 04-122]	< 10 nM	< 10 nM

SMILES	EC50 [1]	EC50 [2]
CC(C)(C)NC[C@H](O)c1ccc2c(c1)C1(CC1)CN2 [Compound 04-123]	> 1000 nM	100 to 1000 nM
CC(C)(C)NC[C@H](O)c1ccc2[nH]cnc2c1 [Compound 04-124]	10 to 100 nM	< 10 nM
COc1ccc(C[C@@H](C)NC[C@H](O)c2cccc3[nH]c4ccccc4c23)cc1 [Compound 04-125]	10 to 100 nM	< 10 nM
CC(C)(C)NC[C@@H](O)c1ccnc2[nH]ncc12 [Compound 04-126]	> 1000 nM	> 1000 nM
CC(C)(C)NC[C@H](O)c1ccnc2[nH]ncc12 [Compound 04-127]	10 to 100 nM	< 10 nM
CC(C)(C)NC[C@H](O)c1ccc2c(c1)[nH]c1ncccc12 [Compound 04-128]	> 1000 nM	100 to 1000 nM
CC(C)(C)NC[C@H](O)c1cccc2c1CCCC(=O)N2 [Compound 04-129]	> 1000 nM	10 to 100 nM
Cc1ccc([C@@H](O)CNC(C)(C)C)c2cn[nH]c12 [Compound 04-130]	< 10 nM	< 10 nM
CC(C)(C)NC[C@H](O)c1cccc2[nH]c3ncccc3c12 [Compound 04-131]	< 10 nM	< 10 nM
CC(C)(C)NC[C@H](O)c1cccc2c1OC(C)(C)C(=O)N2 [Compound 04-133]	< 10 nM	< 10 nM
CC(C)(C)NC[C@@H](O)c1ccc2cccc(C#N)c2n1 [Compound 04-134]	10 to 100 nM	100 to 1000 nM
CC(C)(C)NC[C@H](O)c1ccc2cccc(C#N)c2n1 [Compound 04-135]	< 10 nM	< 10 nM
CC(C)(C)NC[C@@H](O)c1ccc2ccc(C(F)(F)F)cc2n1 [Compound 04-136]	> 1000 nM	100 to 1000 nM
CC(C)(C)NCC(O)c1ccc2ccc(C(F)(F)F)cc2[n+]1[O-] (stereo not shown) [Compound 04-137]	100 to 1000 nM	10 to 100 nM
Cc1ccc2[nH]ncc2c1[C@@H](O)CNC(C)(C)C [Compound 04-138]	> 1000 nM	100 to 1000 nM
CC(C)(C)NC[C@H](O)c1c(Cl)ccc2[nH]ncc12 [Compound 04-139]	> 1000 nM	> 1000 nM
CC(C)CNC[C@H](O)c1ccc2nc[nH]c2c1 [Compound 04-140]	> 1000 nM	100 to 1000 nM
CC(C)(CO)NC[C@H](O)c1cccc2[nH]c(=O)ccc12 [Compound 04-141]	10 to 100 nM	< 10 nM
O=c1ccc2c([C@@H](O)CNC3CCC3)cccc2[nH]1 [Compound 04-142]	< 10 nM	< 10 nM
CC(C)CNC[C@H](O)c1cccc2[nH]c(=O)ccc12 [Compound 04-143]	10 to 100 nM	10 to 100 nM
